How the values were obtained:
[1] = test system: hiSIECs monolayers in gut MPS/Emulate; assay: Permeability / donor concentration of test drugs using gut MPS/Emulate (fluidic conditions)
Experimental: F-hiSIEC was thawed and suspended in seeding medium according to the manufacture’s protocol. The suspension of F-hiSIEC (6.0×10^6 cells/mL, 35-40 μL/chip) was transferred to the chip and incubated at 37 °C overnight. The cells were then cultured in maintenance medium under perfusion culture conditions at a flow rate of 15 μL/hr from day1 to day 4 and 30 μL/h from day 5 to day9. Gravity wash and prime cycle were performed when necessary. Additionally, the membrane strain rate was set to 2% at a frequency of 0.15 Hz from day 3 to day 5 and to 10% from day 6 to day 9. The permeability of the test drugs was assessed on day 9.
The test drugs were added to the culture medium. The top and bottom channels of the chip were perfused with the media at a flow rate of 30 μL/h. […] Inhibitors (10μM Ketoconazole, 5μM PSC833 and 5μM Ko143) were added as a cocktail to both the channels. Media were collected from the outlet chamber at 6, 24, 30, and 48 h.

[2] = in vitro; settings: human
Experimental: (§1) The seeding medium and culture medium of hiSIECs for LLI and ALI were obtained from FUJIFILM Corporation. hiSIECs were cultured according to the manufacturer’s instructions. Briefly, Fluid3D-X® devices were coated with Corning Matrigel GFR Basement Membrane Matrix (Corning) on the day before seeding the cells. hiSIECs were seeded onto a Fluid3D-X® device at 5.3 × 10^5 cells/MPS and incubated for 5.5 h. The seeding medium was added to the device, and cell culture was started in flow for 11 days at 20 pps 1/4 (3.8 µL/min). After one day, the seeding medium was replaced with LLI culture medium, and the medium was changed every two or three days. ALI culture was performed using the same method as the LLI culture, but the apical channel medium was removed to expose the cells to air on day 4. On day 11 after seeding, the gut MPS was used for the assay.
(§2) Eight gut chips were divided into two groups: with and without inhibitors. […] Because all steps were performed under static conditions, 200 µL of buffer was transferred from the outlet to the inlet by a micropipette before collection of each sample. Serial sampling (150 µL) was performed at following time points (0, 30, 60, 90, and 120 min) from both the donor and acceptor sides. Equal volumes of fresh buffer were added after the sample collection. At the end of the experiment (120 min), the cell lysates were collected. The concentrations of drugs and/or metabolites in the transport buffer and cells were measured by LC-MS/MS. To observe the inhibitory effects of the inhibitor on compound transport, transport experiments were performed in the presence of an inhibitor cocktail containing ketoconazole (10 µM), PSC833 (5 µM), and Ko143 (5 µM) to inhibit CYP3A4, P-gp, and BCRP.
(§3) The permeability, efflux ratio, and Fg parameters were derived as follows:
(§4) The apparent permeability coefficient (Papp, cm/s) was calculated using Eq. (1):1 [drawing 1]
(§5) where dQ/dt, MPS surface area, and C0 represent the amount of the test compound transported to the receiver compartment per unit time when the linearity of its time-dependent transport was
(§6) apparently maintained, the culture area of the gut MPS/Fluid3D-X (0.64 cm^2), and the
(§7) initial concentration of the test compound in the donor compartment.2 [drawing 2]
(§8) where Papp, basal to apical and Papp, apical to basal represent the apparent permeability coefficient in the
(§9) basolateral-to-apical and apical-to-basolateral directions, respectively.
(§10) The intestinal availability (Fg) of CYP3A substrates was calculated based on a previous report[35] using the following equation:3 [drawing 3]
(§11) where CLapical to basal (+ inhibitor) and CLapical to basal (-inhibitor) represent the transcellular transport clearance in the apical-to-basolateral direction in the presence or absence of the inhibitor, respectively.
(§12) The specimens were deproteinated with 3-times volumes of acetonitrile and centrifuged to obtain supernatants. For quantification of the drug concentration on the donor side, the specimens were further diluted 20 times with acetonitrile. Two microliters of each sample was subjected to LC–MS/MS analysis. An AB SCIEX QTRAP 5500 + mass spectrometer (Applied Biosystems, Foster City, CA) equipped with a Nexera X2 LC system (Shimadzu, Kyoto, Japan), operated in electron spray ionization mode, was used for the analysis. Chromatographic separation was performed at 40 °C on a GL Sciences Inc instrument. InertSustain C18 HP analytical column (2.1 I.D. × 100 mm, 3 μm) at a flow rate of 0.5 ml/min using the gradient method. The mobile phase consisted of 2 mmol/L ammonium acetate and 0.1% formic acid in water (mobile phase A) and 0.1% formic acid in acetonitrile (mobile phase B). […] The ion spray voltage and temperature were set at 4500 V and 600 °C, respectively.

[3] = test system: hiSIECs monolayers in gut MPS/Fluid3D-X; assay: in vitro; settings: for effect of inhibitor cocktail on apical-to-basal transport: ketoconazole 10 µM
Experimental: as §1, §2, §3, §4, §5, §6, §7, §8, §9, §10, §11, §12

[4] = test system: hiSIECs; settings: ref 20 (Shirai et al.); cited from earlier work
[5] = in vivo, human; cited from earlier work
[6] = Papp, apical to basal, inhibitor (+)
[7] = Papp, apical to basal, inhibitor (-)
[8] = Papp, basal to apical, inhibitor (-), no inhibitor, mean ± SD, n = 4, deuterium-labeled compound dosed to basal side, apical pH 6.5, basal pH 7.4
[9] = with ketoconazole 10 µM, PSC833 5 µM, Ko143 5 µM (both sides)

| SMILES | efflux ratio at 120 min [2] | Papp at 120 min [2, 6] | Papp at 120 min [2, 7] | Papp at 120 min [2, 8] | Papp at 120 min [2, 9] | efflux ratio at 120 min [2, 9] | effect of inhibitor cocktail on apical-to-basal transport ([3]; PSC833 5 µM, Ko143 5 µM) | also measured |
| --- | --- | --- | --- | --- | --- | --- | --- | --- |
| C=C[C@H]1C[N@@]2CC[C@H]1C[C@@H]2[C@@H](O)c1ccnc2ccc(OC)cc12 [Quinidine] | 2.02 ± 0.37 | 3.88 ± 1.12 ×10⁻⁶ cm/s | 2.15 ± 0.33 ×10⁻⁶ cm/s | 4.37 ± 0.15 ×10⁻⁶ cm/s | 4.37 ± 1.53 ×10⁻⁶ cm/s | 1.12 ± 0.63 |  | effluent concentration as percent of the corresponding inlet concentrations ([1]; at 24 h): 82%; reduction of concentration in the effluent relative to original drug solution ([1]; within the first 6 h): 29% |
| OCc1ncc2n1-c1ccc(Cl)cc1C(c1ccccc1F)=NC2 [1-hydroxymidazolam] |  |  |  |  |  |  |  | secretion of metabolite to apical versus basal channel side ([3]; midazolam dosed apical): preferentially secreted to the apical channel side; formation of metabolite 1-hydroxymidazolam from midazolam in presence of inhibitors ([3]; midazolam dosed apical, inhibitor cocktail): decreased formation |
| O=C(O)c1cc(/N=N/c2ccc(S(=O)(=O)Nc3ccccn3)cc2)ccc1O [Sulfasalazine] | 12.7 ± 2.3 | 0.557 ± 0.095 ×10⁻⁶ cm/s | 0.505 ± 0.072 ×10⁻⁶ cm/s | 6.44 ± 0.45 ×10⁻⁶ cm/s | 1.1 ± 0.29 ×10⁻⁶ cm/s | 1.97 ± 0.76 |  | decrease in intrinsic clearance (directional transport) in the presence of transporter inhibitors ([3]; inhibitor cocktail ketoconazole 10 µM, PSC833 5 µM, Ko143 5 µM): 85% |
| Cc1ncc2n1-c1ccc(Cl)cc1C(c1ccccc1F)=NC2 [Midazolam] |  |  |  |  |  |  | increased with the addition of inhibitors | donor concentration relative to spiked concentration ([1]; presumably adsorption to the device): almost half of the spiked concentration; Papp at 120 min ([2]; Papp, apical to basal, inhibitor (+), inhibitor cocktail ketoconazole 10 µM, PSC833 5 µM, Ko143 5 µM, mean ± SD, n = 3): 14.4 ± 1.9 ×10⁻⁶ cm/s; Papp at 120 min ([2]; Papp, apical to basal, inhibitor (-), no inhibitor, mean ± SD, n = 4, apical pH 6.5, basal pH 7.4): 11.2 ± 0.6 ×10⁻⁶ cm/s; fraction that escaped from the gut metabolism (Fg) ([3]; from ratio of apical-to-basal transport clearance with and without inhibitor): 0.64; Fg reported by Shirai et al. [4]: 0.74; Fg, clinical value [5]: 0.55 |
| Cc1cc(=O)n(-c2ccccc2)n1C [Antipyrine] |  | 18.5 ± 1.2 ×10⁻⁶ cm/s | 20.1 ± 2.7 ×10⁻⁶ cm/s |  |  |  | not affected by the inhibitors | efflux ratio at 120 min ([2]; Efflux ratio (ER), inhibitor (+)): 0.78 ± 0.076; efflux ratio at 120 min ([2]; Efflux ratio (ER), inhibitor (-)): 0.656 ± 0.12; Papp at 120 min ([2]; Papp, basal to apical, inhibitor (+)): 14.4 ± 0.7 ×10⁻⁶ cm/s; Papp at 120 min ([2]; Papp, basal to apical, inhibitor (-)): 13.2 ± 1.1 ×10⁻⁶ cm/s |
